From patent publication US5747051A, “Skin care compositions containing an amide of a hydroxy fatty acid and a retinoid” (Elizabeth Arden Co., Division of Conopco, Inc., priority 1996, dated 1998)

Legend:
[1] = test system: transglutaminase 1 (TG1) in human keratinocytes; test: Transglutaminase 1 (TG1) ELISA assay of keratinocyte differentiation, normalised to DNA, Example 2; type: cell-based; settings: for inhibiting keratinocyte TG1 level when used alone, in words: 2.5×10^-7 M retinol or 10^-6 M lactamide-DEA alone, compared with retinoic acid 2.5×10^-7 M
Procedure: Human keratinocytes, isolated from neonatal foreskin by trypsin treatment were grown in Dulbecco Modification Eagle (DME) Hams F12 (1:1) medium/10% fetal calf serum in the presence of irradiated 3T3 mouse fibroblasts for establishing dividing keratinocyte colonies. Cells were grown under the above condition until their second passage and kept frozen for future use. Frozen second passage keratinocytes were thawed and plated into the above medium and grown for five days before they were switched to a serum-free MCDB 153-based medium keratinocyte growth medium (KGM) from Clonetics Corporation, San Diego, Calif. containing 0.15 mM Ca, or keratinocyte serum-free media (KSFM) from GIBCO containing 0.09 mM Ca). On day 7, when the cells were 80-90% confluent, they were trypsinized and plated in the serum-free medium for the various experiments.
(§1) During the process of terminal differentiation in the epidermis, a 15 nm thick layer of protein, known as the cornified envelope (CE) is formed on the inner surface of the cell periphery. The CE is composed of numerous distinct proteins which have been cross-linked together by the formation of N ^ε -(γ-glutamyl) lysine isodipeptide bonds catalyzed by the action of at least two different transglutaminases (TGases) expressed in the epidermis. TGase I is expressed in abundance in the differentiated layers of the epidermis, especially the granular layer, but is absent in the undifferentiated basal epidermis. Thus TGase I is a useful marker of epidermal keratinocyte differentiation with high TGase I levels indicating a more differentiated state. An ELISA based TGase I assay, using a TGase I antibody, was used to assess the state of differentiation of the cultured keratinocytes in the examples that follow.
Keratinocytes (cultured as described above) were plated in 96 well plates at a density of 3,000 cells per well in 200 μl of cell culture media. After incubation for four days, the media was changed to media containing test compounds (six replicates per test). The cells were cultured for a further 72 hours after which time the media was aspirated and the plates stored at -70° C. After the plates were removed from the freezer, the cells were further freezed fractured by freezing and thawing and then washed 3× with PBS. The cells were incubated for one hour at room temperature (R/T) with TBS/5% BSA buffer. Cells were then incubated with 100 μl of monoclonal anti-human transglutaminase (IgG) mouse antibody (primary antibody) obtained from Biomedical Technologies Inc. diluted 1:2000 in TBS/1% BSA buffer for two hours at 37° C., and then rinsed six times with wash buffer (TBS/1% BSA/0.05% Tween-20). Cells were next incubated with 100 μl of Fab fragment, peroxidase conjugated anti-mouse IgG antibody (secondary antibody) from Amersham diluted 1:4,000 in wash buffer for two hours at 37° C. and then rinsed three times with wash buffer and three times with PBS. Cells were incubated with substrate solution (4 mg o-phenylene diamine and 3.3 μl 30% H2 O2 in 1O ml 0.1M citrate buffer, pH 5.0) for five minutes at R/T and in darkness (under aluminum foil). The reaction was stopped by the addition of 50 μl 4N H2SO4. The absorbance of samples was read at 492 nm in the plate reader. Out of the six replicates, four were treated with both antibodies, two were treated only with the secondary antibody (i.e., to determine the background binding of the enzyme conjugated antibody). Transglutaminase I levels were determined by subtracted background from the readings from each treatment and determining the mean s.d. for the replicates exposed to both antibodies.
The level of TGase-1 detected after treatment of the cells could be influenced by cell number, i.e., the greater the number of cells the greater the level of TGase-1 detected. The level of TGase-1 was normalized to DNA content of the cells in the same well thus eliminating variation due to differences in cell number. […]

[2] = test system: Transglutaminase (TGase I) in human keratinocytes; test: Transglutaminase (TGase I ELISA) assay of keratinocyte differentiation, normalized to DNA, Example 1; type: cell-based; settings: 2.5×10^-7 M, 2.5×10^-8 M and 2.5×10^-9 M
Procedure: Human keratinocytes, isolated from neonatal foreskin by trypsin treatment were grown in Dulbecco Modification Eagle (DME) Hams F12 (1:1) medium/10% fetal calf serum in the presence of irradiated 3T3 mouse fibroblasts for establishing dividing keratinocyte colonies. Cells were grown under the above condition until their second passage and kept frozen for future use. […] On day 7, when the cells were 80-90% confluent, they were trypsinized and plated in the serum-free medium for the various experiments.
as §1, with “Thus TGase I is a useful marker of epidermal keratinocyte differentiation with high TGase I levels indicating a more differentiated state. An ELISA based TGase I assay, using a TGase I antibody, was used to assess the state of differentiation of the cultured keratinocytes in the examples that follow.” left out
Keratinocytes (cultured as described above) were plated in 96 well plates at a density of 3,000 cells per well in 200 μl media. […] The absorbance of samples was read at 492 nm in the plate reader. […] TGase levels were determined by subtracting background from the readings from each treatment and determining mean ±s.d. for the replicates exposed to both Ab.
The level of TGase-1 was normalized to DNA content of the cells in the same well thus eliminating variation due to differences in cell number. DNA quantitation is a particularly useful indicator of cell number, including keratinocyte cell number, because each cell has to all intents and purposes an identical genome and therefore an identical quantity of DNA The total DNA content of a well of cells therefore is directly proportional to the cell number in that well. Quantitation of DNA was used to normalize the TGase data to cell number. […]

[3] = Homo sapiens, Keratinocyte, Table 2A, 2.5 × 10^-8 M, 72 hour treatment, n = 3, read-out: TGase/DNA (% control)
[4] = Homo sapiens, Keratinocyte, Table 2B, 2.5 × 10^-7 M, 72 hour treatment, n = 3, read-out: TGase/DNA (% control)
[5] = Table 2A, 2.5 × 10^-8 M, 72 hour treatment, n = 3, control 18.42 ± 3.88
[6] = Table 2B, 2.5 × 10^-7 M, 72 hour treatment, n = 3, control 64.11 ± 2.91

CCCCCCCCCCC(O)CC(N)=O (stereo not drawn) [C13-β-hydroxy-acid amide, C13 β-hydroxy acid amide]
inhibitory effect on keratinocyte TG1 level when used alone, in words ([1]; 10^-8 M, amide alone): no inhibitory effect
activity at 0.01 µM ([1]; Homo sapiens, Keratinocyte, Table 2A, 10^-8 M, 72 hour treatment, n = 3, read-out: TGase/DNA (% control)): 101%
mean TGase/DNA × 10^5 ± s.d ([1]; Table 2A, 10^-8 M, 72 hour treatment, n = 3, control 18.42 ± 3.88): 18.53 ± 4.58

CC1=C(/C=C/C(C)=C/C=C/C(C)=C/C(=O)O)C(C)(C)CCC1 [Retinoic acid, retinoic acid]
decrease in transglutaminase level, dose dependence [2]: dose dependent
effect on keratinocyte differentiation (transglutaminase level), in words ([2]; vs ethanol control and corresponding retinol treatments): decreased keratinocyte differentiation over both the ethanol control and did so to a significantly greater extent than each of the corresponding 2.5×10^-7 M, 2.5×10^-8 M and 2.5×10^-9 M retinol treatments
effect on keratinocyte differentiation, in words (summary of Examples 1 and 2) [1]: in a dose dependent manner, decreased keratinocyte differentiation
activity at 0.025 µM [1, 3]: 6%
activity at 0.25 µM [1, 4]: 73%
mean TGase/DNA × 10^5 ± s.d [1, 5]: 1.05 ± 1.05
mean TGase/DNA × 10^5 ± s.d [1, 6]: 46.71 ± 7.83

CC1=C(/C=C/C(C)=C/C=C/C(C)=C/CO)C(C)(C)CCC1 [Retinol, retinol]
decrease in transglutaminase level, dose dependence [2]: dose dependent
inhibiting keratinocyte TG1 level when used alone, in words [1]: less effective
effect on keratinocyte differentiation, in words (summary of Examples 1 and 2) [1]: completely ineffective at decreasing keratinocyte differentiation
activity at 0.025 µM [1, 3]: 79%
activity at 0.25 µM [1, 4]: 91%
mean TGase/DNA × 10^5 ± s.d [1, 5]: 14.62 ± 2.99
mean TGase/DNA × 10^5 ± s.d [1, 6]: 58.47 ± 6.25

CC(O)C(=O)NCCO (centres unmarked) [lactamide-MEA, lactamide monoethanolamide]
inhibiting keratinocyte TG1 level when used alone, in words [1]: less effective
activity at 1 µM ([1]; Homo sapiens, Keratinocyte, Table 2B, 10^-6 M, 72 hour treatment, n = 3, read-out: TGase/DNA (% control)): 86%
mean TGase/DNA × 10^5 ± s.d ([1]; Table 2B, 10^-6 M, 72 hour treatment, n = 3, control 64.11 ± 2.91): 55.22 ± 2.43
